The record followed here is ChEMBL document CHEMBL1124767, “Synthesis, pharmacological effects, and conformation of 4,4-disubstituted 1,4-dihydropyridines” (J Med Chem, 1990).

Values after ≈ are worked out from the molar mass of the structure shown.

Test [1] is filed under the species Oryctolagus cuniculus. Nature of the test: Evaluated in vitro for the inhibition of KCl-induced contraction of isolated rabbit aorta rings. It counts as functional.
Test [2] concerns Canis familiaris. The experiment in a line: In vivo antihypertensive activity against anaesthetized dogs after intravenous administration of specified threshold dose. In kind it is functional, Canis lupus familiaris.

By IC50 is commonly meant the concentration that gives 50% inhibition. The low end stands for greater potency in that assay, the high end for weaker potency in that assay. For the compound `COC(=O)C1=C(C)NC(C)=C(C(=O)OC)C1c1ccccc1`, the IC50 in test [1] came to 0.04 µg/mL (≈ 0.133 µM). The Dose in test [2] was 0.05 mg/kg.

The compound `CCC1(c2ccccc2)C(C(=O)OC)=C(C)N=C(C)/C1=C(/O)OC` (stereo unspecified) registered an IC50 in test [1] of 3.6 µg/mL (≈ 10.9 µM).

Regarding `COC(=O)C1=C(C)N=C(C)/C(=C(/O)OC)C1(C)c1cccc([N+](=O)[O-])c1` (stereo unspecified), the IC50 in test [1] is 2.3 µg/mL (≈ 6.38 µM). The compound also displayed a Dose in test [2] of 0.3 mg/kg.

For the compound `COC(=O)C1=C(C)N=C(C)/C(=C(/O)OC)C1(C)c1ccccc1` (stereo unspecified), half-maximal inhibition in test [1] (IC50) was put at 1.2 µg/mL (≈ 3.81 µM). The same compound yielded a Dose in test [2] of 3 mg/kg.

Compound `CCOC(=O)C1=C(C)N=C(C)/C(=C(/O)OCC)C1(C)c1cccnc1` (stereo unspecified) yielded an IC50 in test [1] of 9 µg/mL (≈ 26.1 µM). For the same compound, the Dose in test [2] is 3 mg/kg.

In the case of `CCOC(=O)C1=C(C)N=C(C)/C(=C(/O)OCC)C1c1cccnc1` (stereo unspecified), the IC50 in test [1] worked out at 0.5 µg/mL (≈ 1.51 µM). Besides, the Dose in test [2] was determined as 0.3 mg/kg.
